Test results taken from paper PMC5537347, “A short D-enantiomeric antimicrobial peptide with potent immunomodulatory and antibiofilm activity against multidrug-resistant Pseudomonas aeruginosa and Acinetobacter baumannii” (Scientific Reports, 2017).
Values after ≈ are worked out from the molar mass of the structure shown. Where two headings read alike, the source gives them in different places.

Key:
[1] = system: colistin-resistant P. aeruginosa isolated from cystic fibrosis patients
Description: (§1) The broth microdilution technique was utilized to assess the MIC of designed peptides according to the guidelines of the Clinical and Laboratory Standards Institute (CLSI)[37].

[2] = system: P. aeruginosa and A. baumannii isolates
Description: as §1

[3] = system: intracellular P. aeruginosa PAO1; type: cell-based; conditions: PAO1, 24 h, 8
Method: (§2) Figure 2 Intracellular antibacterial activity of peptides in infected murine macrophage cells (J774A.1). […] Statistical analysis was calculated using one-way ANOVA, with post hoc Tukey’s multiple comparisons test. P < 0.05 was considered significant. One asterisk (*) indicates significance from the negative control. Results are expressed as means from three biological replicates ± standard deviation.
(§3) In order to assess the peptides’ ability to kill intracellular bacteria, murine macrophages (J774A.1) were infected, as described in previous studies[31]–[33], [42], [48]–[51]. Briefly, J774A.1 cells were seeded and incubated as described above for the toxicity assessment. Following incubation, cells were infected with either P. aeruginosa PAO1 or A. baumannii ATCC 19606 (multiplicity of infection 100:1) in DMEM + 10% FBS for two hours. After infection, the wells were washed with 200 µL of media containing gentamicin (50 µg/ml) and further incubated for 30 minutes with gentamicin to kill extracellular bacteria. […] Medium alone was used as a negative control. After incubation, the media was aspirated and washed twice with PBS to remove any residual test agent. Next, 100 µL of PBS containing 0.01% triton X-100 was added to lyse the J774 cells. Subsequently, bacteria were diluted and plated on TSA plates. Plates were incubated at 37 °C for 16 hours. After incubation, bacteria were enumerated and analyzed. The experiment was repeated twice. The average percent reduction of bacterial growth for each treatment regimen has been reported.

[4] = system: intracellular A. baumannii ATCC 19606; type: cell-based; conditions: ATCC 19606, 24 h, 8
Method: as §2, §3

[5] = system: murine macrophages (J774.1A); test: Cytotoxicity, MTS assay; conditions: for EC50: 24 h
Method: (§4) A significant limitation for translating AMPs into clinical applications is their toxicity to host (mammalian) cells. Herein, we evaluated the cytotoxic effects of our peptide constructs against murine macrophages (J774.1A) and human keratinocytes (HaCaT cells), via the MTS assay.
(§5) The peptides were assayed for potential in vitro toxicity against human keratinocytes (HaCaT) and murine macrophage cells (J774A.1), as described before, with the following modifications. Cells were treated with peptides at different concentrations for 24 hours. The therapeutic index of the peptides was calculated as the ratio of mammalian EC50 (the concentration of peptide that inhibited growth of 50% of the mammalian cells) to the MIC50 of peptides against bacteria.

[6] = system: human keratinocytes (HaCaT cells); test: Cytotoxicity, MTS assay; conditions: for EC50: 24 h
Method: as §4, §5

human red blood cells = test: Hemolysis assay; type: cell-based; conditions: for HC50: red cells of human
Method: Next, we assessed the hemolytic activity of the peptides on human red blood cells (RBCs).
Peptides were assayed for hemolytic activity against human red blood cells, as described previously.

[7] = system: C. elegans strain glp-4;sek 1; test: Toxicity of peptides in uninfected C. elegans; type: in vivo, Caenorhabditis elegans; conditions: worms grown four days with peptide; D-RR4 and colistin at 8 × MIC
Method: To test the efficacy of the synthetic peptides to protect against infections in vivo, we utilized a C. elegans model of bacterial infection. This model has been used extensively for early-stage evaluation of promising antimicrobials, [35], [36]. Initially, the lethal dose of D-RR4 against uninfected nematodes was determined.
(A) Evaluation of toxicity of peptides in Caenorhabditis elegans. C. elegans strain glp-4;sek 1 was grown for four days in the presence of peptides at different concentrations. Worms were monitored daily and the live worms were counted. Results are expressed as a Kaplan-Meier survival curve. (B) Evaluation of antimicrobial activity of peptides to reduce the bacterial CFU inside infected Caenorhabditis elegans. C. elegans strain glp-4; sek 1 were infected with P. aeruginosa PAO1, colistin-resistant P. aeruginosa 1109, or A. baumannii ATCC BAA-1605. […] After treatment, worms were lysed and bacteria were counted. One asterisk (*) indicates significant difference with the negative control. Two asterisks (**) indicates significant difference with the monotherapy treatment (P < 0.05). Results are expressed as means from three biological replicates ± standard deviation. (C) Efficacy of peptides in a Caenorhabditis elegans model of bacterial infection. […] Worms were monitored daily and the live worms were counted. Results are expressed as a Kaplan-Meier survival curve. C. elegans receiving no treatment served as a negative control.

P. aeruginosa PAO1 [8] = test: MIC after treatment with proteases; type: cell-based; conditions: 50 mM Tris-HCl pH 7.4, 37 °C, four hours
Method: To examine the ability of peptides to resist proteolytic digestion by mammalian and bacterial proteases, RR4 and D-RR4 were incubated with trypsin or proteinase K at a molar ratio of 500: 1 (peptide: enzyme), respectively, in digestion buffer (50 mM Tris–HCl, pH 7.4) at 37 °C for four hours, as described previously.

[9] = system: A. baumannii ATCC BAA-1605 biofilm; test: Disruption of established biofilms, microtiter dish crystal violet assay; type: cell-based; conditions: mature (24 hour) biofilm
Method: (§6) Figure 1 Efficacy of peptides on established biofilms of P. aeruginosa PAO1 and A. baumannii ATCC BAA-1605. […] After incubation, wells were washed and biofilms were stained with 0.5% (w/v) crystal violet for 30 minutes. The dye was solubilized with ethanol (95%) and the optical density (595 nm) of the biofilm mass was measured. Experiments were repeated twice independently and the average values are reported.
(§7) To examine the peptides’ ability to disrupt bacterial biofilms, the microtiter dish biofilm formation assay was employed[41]–[43].

[10] = system: P. aeruginosa PAO1 biofilm; test: as above; type: cell-based; conditions: for biofilm mass disrupted: mature (24 hour) biofilm, 24 hours at 37 °C, crystal violet OD 595 nm
Method: as §6, §7

P. aeruginosa PAO1 [11] = test: Inner (cytoplasmic) membrane permeabilization assay (propidium iodide); type: cell-based; conditions: D-RR4 5 × and 10 × MIC, LL-37 10 × MIC
Method: Damage of the bacterial inner (cytoplasmic) membrane by peptides was monitored by measuring the fluorescence intensity of P. aeruginosa PAO1 combined with propidium iodide and then subsequently treated with D-RR4.
Damage of the bacterial inner (cytoplasmic) membrane after exposure to peptides was evaluated using propidium iodide, as described elsewhere[47].
Data are presented as means ± standard error of the means
indicated by propidium iodide fluorescence.
Each experiment was performed in duplicate, and the
values represent means ± standard deviation.

A. baumannii = type: cell-based
[12] = colistin-resistant isolated from cystic fibrosis patients
[13] = colistin-resistant isolates of Table 3

Work on `CC[C@@H](C)[C@@H](NC(=O)[C@@H](CCCNC(=N)N)NC(=O)[C@@H](CCCNC(=N)N)NC(=O)[C@@H](CC(C)C)NC(=O)[C@@H](Cc1c[nH]c2ccccc12)NC(=O)[C@@H](C)NC(=O)[C@@H](CCCCN)NC(=O)[C@H](NC(=O)[C@@H](CCCNC(=N)N)NC(=O)[C@@H](CCCNC(=N)N)NC(=O)[C@@H](CC(C)C)NC(=O)[C@H](N)Cc1c[nH]c2ccccc12)[C@H](C)CC)C(=O)N[C@H](CCCCN)C(=O)N[C@H](C)C(N)=O` [D-RR4] yielded an MIC50 [1, 12] of 4 µM (≈ 7.46 µg/mL), an MIC90 [1, 12] of 16 µM (≈ 29.8 µg/mL) and an MIC50 [2] of 2 µM (≈ 3.73 µg/mL). For the same compound, the MIC90 [2] was 4 µM (≈ 7.46 µg/mL), the “MIC against all tested bacterial strains” value [2] was 2 to 8 µM and the intracellular bacteria killed [3] was 96.00% ± 1.15. For the same compound, the intracellular bacteria killed [4] was 100.00% ± 0.00, the EC50 [5] was 64 µM and the “Therapeutic index (TI)” value ([5]; EC50 (J774.1) over MIC50, 512 µM used where no cytotoxicity at […]) was 32. For the same compound, the EC50 [6] was 64 µM, the “Therapeutic index (TI)” value ([6]; EC50 (HaCaT) over MIC50, 512 µM used where no cytotoxicity at […]) was 32 and the “Therapeutic index (TI) RBCs” value (human red blood cells; HC50 over MIC50) was 128. For the same compound, the HC50 (human red blood cells) was 256 µM and the “toxicity to uninfected worms” value [7] was “not toxic”.

`CC[C@H](C)[C@H](NC(=O)[C@H](CCCNC(=N)N)NC(=O)[C@H](CCCNC(=N)N)NC(=O)[C@H](CC(C)C)NC(=O)[C@H](Cc1c[nH]c2ccccc12)NC(=O)[C@H](C)NC(=O)[C@H](CCCCN)NC(=O)[C@@H](NC(=O)[C@H](CCCNC(=N)N)NC(=O)[C@H](CCCNC(=N)N)NC(=O)[C@H](CC(C)C)NC(=O)[C@@H](N)Cc1c[nH]c2ccccc12)[C@@H](C)CC)C(=O)N[C@@H](CCCCN)C(=O)N[C@@H](C)C(=O)O` [RR4] showed an MIC50 [1, 12] of 8 µM (≈ 14.9 µg/mL), an MIC90 [1, 12] of 32 µM (≈ 59.7 µg/mL) and an MIC50 [2] of 4 µM (≈ 7.47 µg/mL). For the same compound, the MIC90 [2] was 8 µM (≈ 14.9 µg/mL), the “improvement in the MIC over RR” value ([2]; MIC50 and MIC90) was 16 fold and the MIC (P. aeruginosa PAO1 [8]; after Proteinase K 1:500 (peptide:enzyme 500:1)) was over 64 µM. The MIC (P. aeruginosa PAO1 [8]; after Trypsin 1:500 (peptide:enzyme 500:1)) was over 64 µM, the intracellular bacteria killed [3] was 14.60% ± 5.50 and the intracellular bacteria killed [4] was 25.00% ± 8.90. For the same compound, the EC50 [5] was 64 µM, the EC50 [6] was 128 µM and the biofilm-disrupting activity [9] was “concentration-dependent activity”. For the same compound, the biofilm mass reduced ([10]; 0.5× to 1 × MIC, respectively) was 20–35%, the biofilm mass disrupted ([10]; 4 × MIC) was “more than 31%” and the biofilm mass disrupted ([10]; 8 × MIC) was over 39%. For the same compound, the biofilm mass disrupted ([10]; 16 × MIC) was over 41%, the biofilm mass disrupted ([10]; 32 × MIC) was over 61% and the “Therapeutic index (TI) RBCs” value (human red blood cells) was 64. The HC50 (human red blood cells) was 256 µM.

In the case of `CC[C@H](C)[C@H](NC(=O)[C@H](CCCCN)NC(=O)[C@H](CCC(=O)O)NC(=O)[C@H](CCCCN)NC(=O)[C@H](CO)NC(=O)[C@H](CCCCN)NC(=O)[C@H](CCCNC(=N)N)NC(=O)[C@H](Cc1ccccc1)NC(=O)[C@H](Cc1ccccc1)NC(=O)[C@H](CC(=O)O)NC(=O)CNC(=O)[C@H](CC(C)C)NC(=O)[C@@H](N)CC(C)C)C(=O)NCC(=O)N[C@@H](CCCCN)C(=O)N[C@@H](CCC(=O)O)C(=O)N[C@@H](Cc1ccccc1)C(=O)N[C@@H](CCCCN)C(=O)N[C@@H](CCCNC(=N)N)C(=O)N[C@H](C(=O)N[C@H](C(=O)N[C@@H](CCC(N)=O)C(=O)N[C@@H](CCCNC(=N)N)C(=O)N[C@H](C(=O)N[C@@H](CCCCN)C(=O)N[C@@H](CC(=O)O)C(=O)N[C@@H](Cc1ccccc1)C(=O)N[C@@H](CC(C)C)C(=O)N[C@@H](CCCNC(=N)N)C(=O)N[C@@H](CC(N)=O)C(=O)N[C@@H](CC(C)C)C(=O)N[C@H](C(=O)N1CCC[C@H]1C(=O)N[C@@H](CCCNC(=N)N)C(=O)N[C@H](C(=O)N[C@@H](CCC(=O)O)C(=O)N[C@@H](CO)C(=O)O)[C@@H](C)O)C(C)C)[C@@H](C)CC)C(C)C)[C@@H](C)CC` [LL-37, reference compound], the “propidium iodide fluorescence (inner membrane damage)” value (P. aeruginosa PAO1 [11]) is reported as “rapid and significant increase in fluorescence”, the MIC50 [1, 13] is reported as 64 µM (≈ 288 µg/mL) and the MIC90 [1, 13] is reported as over 128 µM. It also gave an MIC ([1]; strain 1015) of over 128 µM, an MIC ([1]; strain 1016) of over 128 µM and an MIC ([1]; strain 1017) of over 128 µM. The MIC ([1]; strain 1020) was 32 µM (≈ 144 µg/mL), the MIC ([1]; strain 1109) was 64 µM (≈ 288 µg/mL) and the MIC ([1]; strain 1125) was 128 µM (≈ 575 µg/mL). For the same compound, the MIC ([1]; strain 1131) was 16 µM (≈ 71.9 µg/mL), the MIC ([1]; strain 1133) was 32 µM (≈ 144 µg/mL) and the MIC ([1]; strain 1571) was 16 µM (≈ 71.9 µg/mL). For the same compound, the MIC ([1]; strain 1603) was 32 µM (≈ 144 µg/mL), the MIC ([1]; strain 16011) was over 128 µM and the MIC50 ([2]; MIC that inhibited growth of 50% of all isolates (Table 2)) was 4 µM (≈ 18 µg/mL). For the same compound, the MIC90 ([2]; MIC that inhibited growth of 90% of all isolates (Table 2)) was 32 µM (≈ 144 µg/mL), the MIC (A. baumannii; strain ATCC 19606) was 2 µM (≈ 8.99 µg/mL) and the MIC (A. baumannii; strain ATCC BAA-747) was 8 µM (≈ 35.9 µg/mL). The MIC (A. baumannii; strain ATCC BAA-1605) was 4 µM (≈ 18 µg/mL), the MIC (A. baumannii; strain NR-9667) was 4 µM (≈ 18 µg/mL) and the MIC (A. baumannii; strain NR-13374) was 4 µM (≈ 18 µg/mL). It also gave an MIC (A. baumannii; strain NR-13375) of 4 µM (≈ 18 µg/mL), an MIC (A. baumannii; strain NR-13382) of 4 µM (≈ 18 µg/mL) and an MIC (A. baumannii; strain NR-17777) of 4 µM (≈ 18 µg/mL). For the same compound, the MIC (A. baumannii; strain NR-17778) was 4 µM (≈ 18 µg/mL), the MIC (A. baumannii; strain NR-17780) was 4 µM (≈ 18 µg/mL) and the MIC (A. baumannii; strain NR-17783) was 4 µM (≈ 18 µg/mL). The MIC (A. baumannii; strain NR-17784) was 4 µM (≈ 18 µg/mL), the MIC (A. baumannii; strain NR-17785) was 4 µM (≈ 18 µg/mL) and the MIC (A. baumannii; strain NR-17786) was 4 µM (≈ 18 µg/mL). It also gave an MIC (A. baumannii; strain NR-19298) of 2 µM (≈ 8.99 µg/mL) and an MIC (A. baumannii; strain NR-19299) of 8 µM (≈ 35.9 µg/mL).
